Experimental data: patent US12528801B2 (Givaudan SA, priority 2019, dated 2026)

How the values were obtained:
[1] = biological target: T1, hTRPM8 (Homo sapiens, UniProt Q7Z2W7); assay: Assay on TRPM8 modulators: calcium imaging (Fluo-4, Flexstation) in HEK293 cell line stably expressing hTRPM8; assay type: cell-based; settings: HEK293 cells stably expressing hTRPM8; calcium influx, Fluo-4, Flexstation 3; sigmoidal dose-response fit
T1 construct: expressed in transfected cells
How it was run: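 HEK293 cells stably expressing hTRPM8 were loaded with Fluo-4 AM plus probenecid and kept in HEPES buffer, pH 7.4. Calcium influx to serially diluted compounds was recorded for 120 s. Maximal activation was referenced to solvent control and 31.6 μM menthol, with EC values from sigmoidal dose-response fits.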

[2] = tested on: trained group of panelists; assay: Sensory studies in aqueous solution (trained panel, mouth swill); assay type: in vivo, human; settings: 10 ppm in aqueous solution; for Time of max. cooling / Max. cooling: 20 mL swilled in the mouth for 60 seconds; for Max. cooling / Cooling after 1 h: panel-averaged cooling score, scale 0 to 10; for Cooling after 1 h: 1 h after swilling
Protocol: The compounds as listed below in Table 2 were dissolved at a concentration of 1 wt-% in propylene glycol. These solutions were then dispensed in appropriate quantities into deionized water containing 0.5 wt-% Poloxamer 407 (which is a hydrophilic non-ionic surfactant, e.g., commercially available from SigmaAldrich) and 0.25 wt-% Cremaphor® RH40 (obtained from BASF) as solubilizer, to obtain the desired final concentration of 10 ppm (parts per million) of the respective compound.
A trained group of panelists evaluated the aqueous solutions containing test compound by swilling 20 mL of the solution in the mouth for 60 seconds, followed by spitting, without rinsing the mouth afterwards for the duration of the evaluation. Panelists evaluated and recorded the cooling performance as well as other sensorial and organoleptic attributes at different timepoints over a period of two hours. Cooling performance was rated on a scale from 0 to 10 with 0 being no effect and 10 being freezing. Scores were averaged for all panelists and the cooling intensity qualified as “none” (score of 0), “low” (score above 0, up to 1), “medium” (score above 1, up to 4) “strong” (score above 4, up to 8) and “freezing” (score above 8), which are provided in Table 2.

T1 sequence (Q7Z2W7 whole entry): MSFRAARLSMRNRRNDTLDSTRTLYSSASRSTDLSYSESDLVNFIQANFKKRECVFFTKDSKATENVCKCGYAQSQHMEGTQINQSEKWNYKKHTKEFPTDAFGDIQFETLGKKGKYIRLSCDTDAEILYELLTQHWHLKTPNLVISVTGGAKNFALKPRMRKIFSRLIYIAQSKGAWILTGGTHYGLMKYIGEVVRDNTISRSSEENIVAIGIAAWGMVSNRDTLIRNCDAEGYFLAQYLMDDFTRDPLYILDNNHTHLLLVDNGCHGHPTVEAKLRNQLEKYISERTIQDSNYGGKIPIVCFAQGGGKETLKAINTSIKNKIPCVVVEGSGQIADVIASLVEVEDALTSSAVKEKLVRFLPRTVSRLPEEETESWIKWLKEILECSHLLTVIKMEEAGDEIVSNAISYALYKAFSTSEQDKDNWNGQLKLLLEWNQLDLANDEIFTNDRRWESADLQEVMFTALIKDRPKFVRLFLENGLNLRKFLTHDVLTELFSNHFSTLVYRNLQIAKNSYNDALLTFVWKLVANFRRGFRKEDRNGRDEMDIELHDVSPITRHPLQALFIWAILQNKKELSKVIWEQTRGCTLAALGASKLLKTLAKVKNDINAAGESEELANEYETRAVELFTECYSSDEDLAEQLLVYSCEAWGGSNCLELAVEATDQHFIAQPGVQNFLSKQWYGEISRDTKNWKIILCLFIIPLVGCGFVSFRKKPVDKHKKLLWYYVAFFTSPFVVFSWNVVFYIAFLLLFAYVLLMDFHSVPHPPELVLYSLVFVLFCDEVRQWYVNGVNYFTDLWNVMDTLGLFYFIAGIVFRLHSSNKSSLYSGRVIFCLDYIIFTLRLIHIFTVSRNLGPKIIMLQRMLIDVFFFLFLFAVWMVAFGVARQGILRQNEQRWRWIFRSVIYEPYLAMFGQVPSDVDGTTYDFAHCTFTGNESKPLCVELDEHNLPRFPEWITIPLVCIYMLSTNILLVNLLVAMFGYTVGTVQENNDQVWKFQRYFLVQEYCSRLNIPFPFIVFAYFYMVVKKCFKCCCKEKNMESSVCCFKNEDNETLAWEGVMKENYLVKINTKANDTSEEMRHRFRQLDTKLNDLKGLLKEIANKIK

Structure (SMILES): CSC(C)C(=O)N1CCCCC1c1ncc(-c2ccc(C)s2)[nH]1 (stereo not shown) [Compound 127, 2-(methylthio)-1-(2-(5-(5-methylthiophen-2-yl)-1H-imidazol-2-yl)piperidin-1-yl)propan-1-one]
- EC50 [1]: < 50 nM
- Time of max. cooling [2]: 10 min
- Max. cooling [2]: S (S = Strong)
- Cooling after 1 h [2]: M (M = medium)

Structure (SMILES): CSC(C)C(=O)N1CCCCC1c1ncc(-c2ccccc2)[nH]1 (stereo not shown) [Compound 135, 2-(methylthio)-1-(2-(5-phenyl-1H-imidazol-2-yl)piperidin-1-yl)propan-1-one]
- EC50 [1]: < 50 nM
- Time of max. cooling [2]: 10 min
- Max. cooling [2]: M (M = medium)
- Cooling after 1 h [2]: L (L = Low)

Structure (SMILES): CCC(C)C(=O)N1CCCCC1c1ncc(-c2ccc(C#N)cc2)[nH]1 (stereo not shown) [Compound 198]
- EC50 [1]: < 50 nM

Structure (SMILES): Cc1ccc(-c2cnc(C3CCCCN3C(=O)C(C)C(C)C)[nH]2)cc1 (stereo not shown) [Compound 199, 2,3-dimethyl-1-(2-(5-(p-tolyl)-1H-imidazol-2-yl)piperidin-1-yl)butan-1-one]
- EC50 [1]: < 50 nM

Structure (SMILES): CCC(C)C(=O)N1CCCCC1c1ncc(-c2ccccc2C)[nH]1 (stereo not shown) [Compound 200, 2-methyl-1-(2-(5-(o-tolyl)-1H-imidazol-2-yl)piperidin-1-yl)butan-1-one]
- EC50 [1]: 50 to 300 nM

Structure (SMILES): CCC(C)C(=O)N1CCCCC1c1ncc(-c2cccc(C)c2)[nH]1 (stereo not shown) [Compound 201, 2-methyl-1-(2-(5-(m-tolyl)-1H-imidazol-2-yl)piperidin-1-yl)butan-1-one]
- EC50 [1]: 50 to 300 nM

Structure (SMILES): CCC(C)C(=O)N1CCCCC1c1ncc(-c2ccc(CO)cc2)[nH]1 (stereo not shown) [Compound 202, 1-(2-(5-(4-(hydroxymethyl)phenyl)-1H-imidazol-2-yl)piperidin-1-yl)-2-methylbutan-1-one]
- EC50 [1]: 50 to 300 nM

Structure (SMILES): Cc1ccc(-c2cnc(C3CCCCN3S(=O)(=O)C(C)C)[nH]2)cc1 (stereo not shown) [Compound 203, 1-(isopropylsulfonyl)-2-(5-(p-tolyl)-1H-imidazol-2-yl)piperidine]
- EC50 [1]: 300 to 1000 nM

Structure (SMILES): CCC(C)S(=O)(=O)N1CCCCC1c1ncc(-c2ccc(C)cc2)[nH]1 (stereo not shown) [Compound 204, 1-(sec-butylsulfonyl)-2-(5-(p-tolyl)-1H-imidazol-2-yl)piperidine]
- EC50 [1]: 1000 to 35000 nM

Structure (SMILES): CCC(C)C(=O)N1CCCCC1c1ncc(-c2ccc(C)s2)[nH]1 (stereo not shown) [Compound 205, 2-methyl-1-(2-(5-(5-methylthiophen-2-yl)-1H-imidazol-2-yl)piperidin-1-yl)butan-1-one]
- EC50 [1]: < 50 nM

Structure (SMILES): CSC(C)C(=O)N1CCNCC1c1ncc(-c2ccc(C)cc2)[nH]1 (stereo not shown) [Compound 206, 2-(methylthio)-1-(2-(5-(p-toly)-1H-imidazol-2-yl)piperazin-1-yl)propan-1-one]
- EC50 [1]: < 50 nM

Structure (SMILES): CSC(C)C(=O)N1CCCCC1c1nc(-c2ccc(C)cc2)co1 (stereo not shown) [Compound 207, 2-(methylthio)-1-(2-(4-(p-tolyl)oxazol-2-yl)piperidin-1-yl)propan-1-one]
- EC50 [1]: < 50 nM

Structure (SMILES): CCC(C)C(=O)N1CCCCC1c1nc(-c2ccc(C)cc2)co1 (stereo not shown) [Compound 208, 2-methyl-1-(2-(4-(p-tolyl)oxazol-2-yl)piperidin-1-yl)butan-1-one]
- EC50 [1]: < 50 nM
